Data on one compound can be found in patent US9796674B2, “Benzyl urea derivatives for activating TGF-beta signaling” (THE BOARD OF TRUSTEES OF THE LELAND STANFORD JUNIOR …, priority 2013, dated 2017).

The term MTD denotes the largest dose that counted as tolerated.

Type in all cases: in vivo
For one series, the system named is Sprague Dawley rats. The series can be described thus: 7-Day oral gavage dose range finding and toxicokinetic study in rats. On the procedure:
7-Day oral gavage dose range finding and toxicokinetic study of SRI-011381 in male and female Sprague Dawley rats: The objective of this study was to determine maximum tolerated dose (MTD), characterize the potential toxicity, and estimate the dose dependence of exposure to SRI-011381 in adult male and female Sprague Dawley rats following daily oral gavage (po) dose administration for 7 consecutive days. The doses studied were 2, 10, and 50 mg/kg, formulated in 15% Solutol/85% sterile water and administered in the volume of 10 ml/kg.
Species and Strain: Sprague Dawley rat; Route of Administration: Oral (po); Frequency: Daily administration for 7 consecutive days; Dosing Volume: 10 ml/kg; Dose volumes will be calculated based on the animal's most recent body weight; Duration of In-life Phase: 8 days; Endpoints: clinical observations, mortality, body weights, clinical chemistry, hematology, gross pathology, organ weights, histopathology, toxicokinetics.

For series [1], the system named is APP751LonSwe transgenic mice. The series is described as follows: Repeat dose range finding toxicity study in APP751LonSwe transgenic mice. The following applies: oral 10, 30, 60, or 100 mg/kg 3 times a week for 2 weeks. On the procedure: (§1) Determination of the maximum tolerated dose of SRI-011381 in APP transgenic mice on a C57Bl/6 genetic background: A repeat dose range finding toxicity study was also performed in APP751^LonSwe transgenic mice to select doses for evaluation in the efficacy study. Compound SRI-011381 was dissolved in a vehicle containing 15% solutol and 85% water. The formulated compound was administered orally to APP751^LonSwe transgenic mice at 0 (vehicle only), 10, 30, 60, or 100 mg/kg of body weight 3 times a week for 2 weeks (this is the regimen intended to be used for the preclinical treatment study in these mice). Five mice (3 male and 2 female) were used for each dosage group. The starting ages of the mice ranged from 4.4 to 6.1 months. Serum and whole blood samples were collected at the end of the study and subjected to clinical chemistry and hematology analysis.

Experiment in series [2]: as above
To be noted: both sexes, APP751LonSwe transgenic, C57Bl/6 background, mouse, in vivo; oral, 3 times per week for 2 weeks; read-out: maximum tolerated dose (MTD). On the procedure:
as §1

The mark [3] stands for this setting: po 2, 10, 50 mg/kg daily for 7 days.

`O=C(NC1CCCCC1)N(Cc1ccccc1)CC1CCNCC1` [SRI-011381, 1-Benzyl-3-cyclohexyl-1-(piperidin-4-ylmethyl)urea]: the LDH entry in the series with Sprague Dawley rats (high dose group (50 mg/kg)) is listed as “significantly lower in male rats of the high dose group”. For the same compound, in the series on Sprague Dawley rats (male and female rats), the “gender related differences in exposure” value is listed as “nor were gender related differences observed”. Besides, the “exposure after 7 doses compared to the first dose” value with Sprague Dawley rats (po 2, 10, 50 mg/kg) is recorded as “no apparent change in exposure”. Further, in the series with Sprague Dawley rats (setting [3]), the “alkaline phosphatase (ALP) levels” value is reported as “significantly elevated in all treatment groups in the female rats, though not in males”; the body weight result was “no statistically significant differences in body weight”; the clinical observations entry was “appeared normal”; the hematology parameters result is “no significant changes in any hematology parameters”. The “exposure based on plasma collected 1 h after dose” value with Sprague Dawley rats (po 2, 10, 50 mg/kg, Day 1 and 7) is “increased in a dose dependent fashion”. In addition, in series [1], the body weight entry is given as “no significant differences in body weight” and the “clinical chemistry or hematology parameters” value was “no statistically significant changes”. Also, the maximum tolerated dose (MTD) at 2 weeks in series [2] is greater than 100 mg/kg.
